Laboratory results taken from US20110280940A1, “Di-Vanilloyl And Tri-Vanilloyl Derivatives For Use In Anti-Cancer Therapy” (priority 2008, published 2011).
Like-named read-outs stand apart in the source and are kept apart here.

What was measured:
VM21 melanoma cells = assay: MTT colorimetric assay, overall cell growth, VM21; format: cell-based, human; conditions: Homo sapiens, read-out: In Vitro IC50 Growth Inhibitory Values, VM21
In short: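 Growth is measured as remaining living cells relative to untreated controls after 72 h at 37 °C with compound at 10^-8 to 10^-4 M. Readout is MTT formazan absorbance at 570 nm.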

VM48 melanoma cells = assay: MTT colorimetric assay, overall cell growth, VM48; format: cell-based, human; conditions: Homo sapiens, read-out: In Vitro IC50 Growth Inhibitory Values, VM48
DYRK1A kinase = target: T1, DYRK1A kinase (Homo sapiens, UniProt Q13627); assay: Radiometric protein kinase assay (33 PanQinase), DYRK-1A; format: biochemical; conditions: for IC50: dose-response 0-100 μM, n=3, read-out: IC50: Concentration of drug needed in order to inhibit kinase activity by 50%, DYRK-1A; for inhibition at 57 µM: read-out: inhibition of DYRK-1A activity
T1 construct: made in house
Description: (§1) The kinase inhibition profile of DLT11 at 20 μM was determined using 250 protein kinases. […] A radiometric protein kinase assay (33 PanQinase®Activity Assay) was used for measuring the kinase activity of 250 protein kinases. All kinase assays were performed in 96-well flashPlates™ from Perkin Elmer (Boston, Mass., USA) in a 50 μl reaction volume. The reaction cocktail was pipetted in 4 steps in the following order: • 10 μl of non-radioactive ATP solution (in H2O) • 25 μl of assay buffer/[γ-33P]-ATP mixture • 5 μl of test sample in 10% DMSO • 10 μl of enzyme/substrate mixture
as §1, with “of DLT95-Cl” for “of DLT11”, “using 255” for “using 250”
The assay for all enzymes contained 60 mM HEPES-NaOH, pH 7.5, 3 mM MgCl2, 3 mM MnCl2, 3 μM Na-orthovanadate, 1.2 mM DTT, 50 μg/ml PEG20000, 1 μM ATP/[γ-33P]-ATP (approx. […] per well), protein kinase, and substrate. All PKC assays (except the PKC-mu and the PKC-nu assay) additionally contained 1 mM CaCl2, 4 mM EDTA, 5 μg/ml Phosphatidylserine and 1 μg/ml 1,2-Dioleyl-glycerol. The MYLK2, CAMK1D, CAMK2A, CAMK2B, CAMK2D, CAMK4, CAMKK2, DAPK2 and EEF2K assays additionally contained 1 μg/ml Calmodulin and 0.5 mM CaCl2. The PRKG1 and PRKG2 assays additionally contained 1 μM cGMP.
The protein kinases were expressed either in Sf9 insect cells or in E. coli as recombinant GST-fusion proteins or as His-tagged proteins. All kinases were produced from human cDNAs. Kinases were purified by affinity chromatography using either GSH-agarose (Sigma) or Ni-NTH-agarose (Qiagen). The purity of the protein kinases was examined by SDS-PAGE/coomassie staining. The identity of the protein kinases was checked by mass spectroscopy.
The reaction cocktails were incubated at 30° C. for 60 minutes. The reaction was stopped with 50 μl of 2% (v/v) H3PO4, plates were aspirated and washed two times with 200 μl 0.9% (w/v) NaCl. All assays were performed with a BeckmanCoulter Biomek 2000/SL robotic system.
Incorporation of ^33Pi (counting of “cpm”) was determined with a microplate scintillation counter (Microbeta, Wallac).
For each kinase, the median value of the cpm of three wells with complete reaction cocktails, but without kinase, was defined as “low control” […]. This value reflects unspecific binding of radioactivity to the plate in the absence of protein kinase but in the presence of the substrate. Additionally, for each kinase the median value of the cpm of three other wells with the complete reaction cocktail, but without any compound, was taken as the “high control”, i.e. full activity in the absence of any inhibitor […]. The difference between high and low control of was taken as 100% activity for each kinase. As part of the data evaluation the low control value of each kinase was subtracted from the high control value as well as from their corresponding “compound values”. The residual activity (in %) for each compound well was calculated by using the following formula: Res. Activity (%)=100×[(cpm of compound−low control)/(high control−low control)]

| IC50 (VM21 melanoma cells; MTT, 72 hours of incubation) [µM] | IC50 (VM48 melanoma cells; MTT, 72 hours of incubation) [µM] | inhibition of Dyrk1A (DYRK1A kinase; 20 μM (FIG. 3)) [%] | SMILES | IC50 (VM21 melanoma cells; 72 h) [µM] | IC50 (VM48 melanoma cells; 72 h) [µM] | IC50 (DYRK1A kinase) [µM] | inhibition at 57 µM (DYRK1A kinase) [%] |
| --- | --- | --- | --- | --- | --- | --- | --- |
| – | – | – | O=C(OCc1cc(COC(=O)c2ccc(O)c(Cl)c2)cc(COC(=O)c2ccc(O)c(Cl)c2)c1)c1ccc(O)c(Cl)c1 [DLT95-Cl, [3,5-bis[(4-hydroxy-3-chloro-benzoyl)oxymethyl]phenyl]methyl 4-hydroxy-3-chloro-benzoate] | 35 | 32 | 3.2 | ≥ 50 |
| 71 | 56 | 5 | COc1cc(C(=O)OCCCCCCOC(=O)c2ccc(O)c(OC)c2)ccc1O [DLT11, Hexane-1,6-diyl bis-(4-hydroxy-3-methoxybenzoate)] | – | – | – | – |
| > 1000 | > 1000 | – | COc1cc(C(=O)O)ccc1O [vanillic acid, reference compound] | – | – | > 100 | – |
| – | – | – | O=C(OCc1cc(COC(=O)c2ccc(O)c(F)c2)cc(COC(=O)c2ccc(O)c(F)c2)c1)c1ccc(O)c(F)c1 [DLT95-F, [3,5-bis[(4-hydroxy-3-fluoro-benzoyl)oxymethyl]phenyl]methyl 4-hydroxy-3-fluoro-benzoate] | 65 | 61 | 7.1 | ≥ 50 |
| – | – | – | COc1cc(C(=O)OCc2cc(COC(=O)c3ccc(O)c(OC)c3)cc(COC(=O)c3ccc(O)c(OC)c3)c2)ccc1O [DLT95, [3,5-bis[(4-hydroxy-3-methoxy-benzoyl)oxymethyl]phenyl]methyl 4-hydroxy-3-methoxy-benzoate] | – | – | > 100 | – |

| SMILES | IC50 (VM21 melanoma cells; MTT, 72 hours of incubation) [µM] | IC50 (VM48 melanoma cells; MTT, 72 hours of incubation) [µM] | inhibition of Dyrk1A (DYRK1A kinase; 20 μM (FIG. 3)) [%] | IC50 (VM21 melanoma cells; 72 h) [µM] | IC50 (VM48 melanoma cells; 72 h) [µM] | IC50 (DYRK1A kinase) [µM] | inhibition at 57 µM (DYRK1A kinase) [%] |
| --- | --- | --- | --- | --- | --- | --- | --- |
| COc1cc(C(=O)OCCOC(=O)c2ccc(O)c(OC)c2)ccc1O [DLT1, Ethane-1,2-diyl bis-(4-hydroxy-3-methoxybenzoate)] | 55 | 53 | – | – | – | – | – |
